According to PubChem BioAssay (NCI):
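Results reflect a 48-hour exposure of cells in 96-well plates to compound at five concentrations. The concentration for full growth arrest is given as TGI.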

Assays:
Experiment in all cases: NCI tumour cell line growth inhibition, 48 h
UACC-62 melanoma = test system: UACC-62 melanoma
786-0 renal = test system: 786-0 renal
SF-295 CNS = test system: SF-295 CNS
NCI-H23 lung = test system: NCI-H23 lung
BT-549 breast = test system: BT-549 breast
EKVX NSCLC = test system: EKVX NSCLC
HOP-92 NSCLC = test system: HOP-92 NSCLC
A498 renal = test system: A498 renal
NCI-H226 lung = test system: NCI-H226 lung
M14 melanoma = test system: M14 melanoma
CCRF-CEM leukemia = test system: CCRF-CEM leukemia
HCT-116 colon = test system: HCT-116 colon
OVCAR-8 ovarian = test system: OVCAR-8 ovarian
SF-268 CNS = test system: SF-268 CNS
SF-539 CNS = test system: SF-539 CNS
DU-145 prostate = test system: DU-145 prostate
HOP-62 NSCLC = test system: HOP-62 NSCLC
KM12 colon = test system: KM12 colon
MALME-3M melanoma = test system: MALME-3M melanoma
SN12C renal = test system: SN12C renal
UO-31 renal = test system: UO-31 renal
HCC-2998 colon = test system: HCC-2998 colon
MCF7 breast = test system: MCF7 breast
RPMI-8226 leukemia = test system: RPMI-8226 leukemia
MDA-MB-435 = test system: MDA-MB-435
HCT-15 colon = test system: HCT-15 colon
SNB-75 CNS = test system: SNB-75 CNS
COLO 205 colon = test system: COLO 205 colon
T-47D breast = test system: T-47D breast
SK-OV-3 ovarian = test system: SK-OV-3 ovarian
HS 578T breast = test system: HS 578T breast
MDA-MB-231 breast = test system: MDA-MB-231 breast
A549 NSCLC = test system: A549 NSCLC
SNB-19 CNS = test system: SNB-19 CNS
IGROV1 ovarian = test system: IGROV1 ovarian
RXF 393 renal = test system: RXF 393 renal
UACC-257 melanoma = test system: UACC-257 melanoma
OVCAR-3 ovarian = test system: OVCAR-3 ovarian
LOX IMVI melanoma = test system: LOX IMVI melanoma
MOLT-4 leukemia = test system: MOLT-4 leukemia
PC-3 prostate = test system: PC-3 prostate
ACHN renal = test system: ACHN renal
MDA-N = test system: MDA-N
SK-MEL-2 melanoma = test system: SK-MEL-2 melanoma
SK-MEL-28 melanoma = test system: SK-MEL-28 melanoma
SK-MEL-5 melanoma = test system: SK-MEL-5 melanoma
OVCAR-5 ovarian = test system: OVCAR-5 ovarian
OVCAR-4 ovarian = test system: OVCAR-4 ovarian
TK-10 renal = test system: TK-10 renal
NCI/ADR-RES ovarian = test system: NCI/ADR-RES ovarian
CAKI-1 renal = test system: CAKI-1 renal
HT29 colon = test system: HT29 colon
NCI-H522 lung = test system: NCI-H522 lung
U251 CNS = test system: U251 CNS
SW-620 colon = test system: SW-620 colon
NCI-H460 lung = test system: NCI-H460 lung
K-562 leukemia = test system: K-562 leukemia

Measured: TGI

CCOC(=O)c1cc(NC(=O)N(CCC#N)CCN(C(=O)N[C@@H](Cc2ccccc2)C(=O)N[C@@H](CC(C)C)C(=O)NC)c2ccccc2)ccc1OC
24.9 µM: UACC-62 melanoma
41.5 µM: LOX IMVI melanoma
73.5 µM: MALME-3M melanoma
71 µM: HOP-92 NSCLC
82.9 µM: BT-549 breast
82.1 µM: MOLT-4 leukemia
> 100 µM: 786-0 renal | SF-295 CNS | NCI-H23 lung | EKVX NSCLC | A498 renal | NCI-H226 lung | M14 melanoma | CCRF-CEM leukemia | HCT-116 colon | OVCAR-8 ovarian | SF-268 CNS | DU-145 prostate | HOP-62 NSCLC | KM12 colon | SN12C renal | UO-31 renal | HCC-2998 colon | MCF7 breast | MDA-MB-435 | HCT-15 colon | SNB-75 CNS | COLO 205 colon | T-47D breast | SK-OV-3 ovarian | HS 578T breast | MDA-MB-231 breast | A549 NSCLC | SNB-19 CNS | IGROV1 ovarian | OVCAR-3 ovarian | PC-3 prostate | ACHN renal | MDA-N | SK-MEL-2 melanoma | SK-MEL-28 melanoma | SK-MEL-5 melanoma | OVCAR-5 ovarian | OVCAR-4 ovarian | TK-10 renal | NCI/ADR-RES ovarian | CAKI-1 renal
55 µM: UACC-257 melanoma
98.5 µM: SF-539 CNS
75.2 µM: RXF 393 renal
57.9 µM: RPMI-8226 leukemia

CC(=O)SSC1(Cl)C(C)(C)C(Cl)(SSC(C)=O)C1(C)C (stereo not drawn)
60.2 µM: CCRF-CEM leukemia
82.9 µM: NCI-H460 lung
82.5 µM: SNB-75 CNS
48.5 µM: RXF 393 renal
61.5 µM: SF-539 CNS
51.7 µM: T-47D breast
> 100 µM: UACC-62 melanoma | 786-0 renal | SF-295 CNS | NCI-H23 lung | BT-549 breast | EKVX NSCLC | HOP-92 NSCLC | A498 renal | NCI-H226 lung | M14 melanoma | HCT-116 colon | OVCAR-8 ovarian | SF-268 CNS | HT29 colon | DU-145 prostate | NCI-H522 lung | HOP-62 NSCLC | U251 CNS | KM12 colon | MALME-3M melanoma | SN12C renal | UO-31 renal | SW-620 colon | MCF7 breast | MDA-MB-435 | HCT-15 colon | COLO 205 colon | SK-OV-3 ovarian | HS 578T breast | MDA-MB-231 breast | A549 NSCLC | SNB-19 CNS | IGROV1 ovarian | UACC-257 melanoma | OVCAR-3 ovarian | LOX IMVI melanoma | PC-3 prostate | ACHN renal | MDA-N | SK-MEL-2 melanoma | SK-MEL-28 melanoma | SK-MEL-5 melanoma | OVCAR-5 ovarian | OVCAR-4 ovarian | TK-10 renal | NCI/ADR-RES ovarian | CAKI-1 renal

O=C(CON1C(=O)c2ccccc2C1=O)c1ccccc1
40.7 µM: UO-31 renal
56.9 µM: MALME-3M melanoma
55 µM: TK-10 renal
36.6 µM: NCI-H522 lung
69.1 µM: SW-620 colon
34.8 µM: CAKI-1 renal
52.6 µM: T-47D breast
40.4 µM: RPMI-8226 leukemia
> 100 µM: UACC-62 melanoma | 786-0 renal | K-562 leukemia | SF-295 CNS | NCI-H23 lung | BT-549 breast | EKVX NSCLC | HOP-92 NSCLC | A498 renal | NCI-H226 lung | M14 melanoma | HCT-116 colon | OVCAR-8 ovarian | SF-268 CNS | HT29 colon | SF-539 CNS | DU-145 prostate | HOP-62 NSCLC | U251 CNS | KM12 colon | SN12C renal | MCF7 breast | MDA-MB-435 | HCT-15 colon | SNB-75 CNS | COLO 205 colon | SK-OV-3 ovarian | HS 578T breast | MDA-MB-231 breast | A549 NSCLC | SNB-19 CNS | IGROV1 ovarian | RXF 393 renal | UACC-257 melanoma | OVCAR-3 ovarian | LOX IMVI melanoma | PC-3 prostate | ACHN renal | MDA-N | SK-MEL-2 melanoma | SK-MEL-28 melanoma | SK-MEL-5 melanoma | OVCAR-5 ovarian | NCI-H460 lung | OVCAR-4 ovarian | NCI/ADR-RES ovarian
